Results published in US4731109A, “Herbicidal 2-haloacetanilides” (Monsanto Company, priority 1982, dated 1988).
Where two headings read alike, the source gives them in different places.

Tests used:
Assay type in all cases: in vivo
Barnyardgrass = assay: Resistance to leaching and resulting herbicidal efficacy; conditions: for inhibition at 140 g/ha / inhibition at 560 g/ha / inhibition at 2200 g/ha: Echinochloa crus-galli, read-out: Percent Inhibition
Description: Laboratory tests were conducted to determine the resistance of herbicides according to this invention to leaching into the soil and resulting herbicidal efficacy. […] The pots containing the treated soil were subjected to leaching by placing on a turntable which rotated under two nozzle tips of a water container calibrated to deliver one inch (2.5 cm) of water per hour simulating rainfall. Leaching rates were adjusted by varying the amount of time on the turntable. Water was delivered to the soil in the pots and allowed to percolate through the filter paper and drainage holes. The pots were then allowed to sit for three days at ambient room temperature. The treated soil in the pots was then removed, crumbled and placed as a surface layer on top of other pots containing the above soils seeded with barnyardgrass seeds. The pots were then placed on greenhouse benches, sub-irrigated and allowed to grow for 2-3 weeks. Visual ratings of percent growth inhibition compared to control (untreated) pots and fresh weights for barnyardgrass were recorded; the data from the control represents six replications and that for the test compounds three replications; test data are shown in Table XVIII.

Quackgrass = assay: Greenhouse pre-emergence GR15/GR85 selectivity test; conditions: Table IV
Yellow Nutsedge = assay: as above; conditions: Table IV
prickly sida = assay: as above; conditions: Table XV
Outline: (§1)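 Pre-emergence soil-incorporation test: seeded pans were covered with topsoil mixed with active ingredient (in solvent or as wettable powder), overhead-irrigated (0.64 cm) or not, then subirrigated. Plants were scored about 2-3 weeks after treatment. GR15/GR85 rates are in kg/ha, and selectivity factor is crop GR15 divided by weed GR85.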

common ragweed = assay: as above; conditions: Table XV
Outline: as §1

common purslane = assay: as above; conditions: Table XV
Outline: as §1

[1] = Ray silt loam, 0.14 Kg/Ha, rain 0 cm
[2] = Ray silt loam, 0.14 Kg/Ha, rain 1.27 cm
[3] = Ray silt loam, 0.14 Kg/Ha, rain 5.08 cm
[4] = Ray silt loam, 0.14 Kg/Ha, rain 10.61 cm
[5] = Ray silt loam, 0.56 Kg/Ha, rain 0 cm
[6] = Ray silt loam, 0.56 Kg/Ha, rain 1.27 cm
[7] = Ray silt loam, 0.56 Kg/Ha, rain 5.08 cm
[8] = Ray silt loam, 0.56 Kg/Ha, rain 10.16 cm
[9] = Ray silt loam, 2.2 Kg/Ha, rain 0 cm
[10] = Ray silt loam, 2.2 Kg/Ha, rain 1.27 cm
[11] = Ray silt loam, 2.2 Kg/Ha, rain 5.08 cm
[12] = Ray silt loam, 2.2 Kg/Ha, rain 10.16 cm

In the case of Cc1cccc(C(F)(F)F)c1N(COC(C)C)C(=O)CCl [Example 4, N--(isopropoxymethyl)-2'-trifluoromethyl-6'-methyl-2-chloroacetanilide], the inhibition at 140 g/ha (Barnyardgrass; Drummer silt clay, 0.14 Kg/Ha, rain 0 cm) is reported as 70%, the inhibition at 140 g/ha (Barnyardgrass; Drummer silt clay, 0.14 Kg/Ha, rain 1.27 cm) is reported as 96% and the inhibition at 140 g/ha (Barnyardgrass; Drummer silt clay, 0.14 Kg/Ha, rain 5.08 cm) is reported as 85%. It also gave an inhibition at 560 g/ha (Barnyardgrass; Drummer silt clay, 0.56 Kg/Ha, rain 0 cm) of 100%, an inhibition at 560 g/ha (Barnyardgrass; Drummer silt clay, 0.56 Kg/Ha, rain 1.27 cm) of 100% and an inhibition at 560 g/ha (Barnyardgrass; Drummer silt clay, 0.56 Kg/Ha, rain 5.08 cm) of 100%. The inhibition at 560 g/ha (Barnyardgrass; Drummer silt clay, 0.56 Kg/Ha, rain 10.16 cm) was 96%, the inhibition at 2200 g/ha (Barnyardgrass; Drummer silt clay, 2.2 Kg/Ha, rain 0 cm) was 100% and the inhibition at 2200 g/ha (Barnyardgrass; Drummer silt clay, 2.2 Kg/Ha, rain 1.27 cm) was 100%. For the same compound, the inhibition at 2200 g/ha (Barnyardgrass; Drummer silt clay, 2.2 Kg/Ha, rain 5.08 cm) was 100%, the inhibition at 2200 g/ha (Barnyardgrass; Drummer silt clay, 2.2 Kg/Ha, rain 10.16 cm) was 100% and the inhibition at 140 g/ha (Barnyardgrass; [1]) was 98%. It also gave an inhibition at 140 g/ha (Barnyardgrass; [2]) of 90%, an inhibition at 140 g/ha (Barnyardgrass; [3]) of 38% and an inhibition at 140 g/ha (Barnyardgrass; [4]) of 12%. For the same compound, the inhibition at 560 g/ha (Barnyardgrass; [5]) was 99%, the inhibition at 560 g/ha (Barnyardgrass; [6]) was 100% and the inhibition at 560 g/ha (Barnyardgrass; [7]) was 89%. For the same compound, the inhibition at 560 g/ha (Barnyardgrass; [8]) was 17%, the inhibition at 2200 g/ha (Barnyardgrass; [9]) was 100% and the inhibition at 2200 g/ha (Barnyardgrass; [10]) was 100%. The inhibition at 2200 g/ha (Barnyardgrass; [11]) was 92%, the inhibition at 2200 g/ha (Barnyardgrass; [12]) was 71% and the inhibition at 140 g/ha (Barnyardgrass; Drummer silt clay, 0.14 Kg/Ha, rain 10.61 cm) was 47%. The “Fresh Weight” value (Barnyardgrass; [1]) was 0.01 Grams, the “Fresh Weight” value (Barnyardgrass; [2]) was 0.41 Grams and the “Fresh Weight” value (Barnyardgrass; [3]) was 2.77 Grams. For the same compound, the “Fresh Weight” value (Barnyardgrass; [4]) was 3.62 Grams, the “Fresh Weight” value (Barnyardgrass; [5]) was 0.02 Grams and the “Fresh Weight” value (Barnyardgrass; [6]) was 0 Grams. The “Fresh Weight” value (Barnyardgrass; [7]) was 0.44 Grams, the “Fresh Weight” value (Barnyardgrass; [8]) was 3.41 Grams and the “Fresh Weight” value (Barnyardgrass; [9]) was 0 Grams. For the same compound, the “Fresh Weight” value (Barnyardgrass; [10]) was 0 Grams, the “Fresh Weight” value (Barnyardgrass; [11]) was 0.31 Grams and the “Fresh Weight” value (Barnyardgrass; [12]) was 1.18 Grams. For the same compound, the GR85 (Quackgrass; Replicate #1) was 0.33 Kg/Ha, the GR85 (Quackgrass; Replicate #2) was 0.18 Kg/Ha and the “selectivity factor (GR15/GR85)” value (Quackgrass; quackgrass in corn, Replicate #1) was 5. For the same compound, the “selectivity factor (GR15/GR85)” value (Quackgrass; quackgrass in corn, Replicate #2) was 11, the “selectivity factor (GR15/GR85)” value (Quackgrass; quackgrass in soybeans, Replicate #1) was 3 and the “selectivity factor (GR15/GR85)” value (Quackgrass; quackgrass in soybeans, Replicate #2) was 9.5. For the same compound, the GR85 (Yellow Nutsedge; Replicate #1) was 0.28 Kg/Ha, the GR85 (Yellow Nutsedge; Replicate #2) was 0.22 Kg/Ha and the “selectivity factor (GR15/GR85)” value (Yellow Nutsedge; yellow nutsedge in corn, Replicate #1) was 6. The “selectivity factor (GR15/GR85)” value (Yellow Nutsedge; yellow nutsedge in corn, Replicate #2) was 8.5, the “selectivity factor (GR15/GR85)” value (Yellow Nutsedge; yellow nutsedge in soybeans, Replicate #1) was 4 and the “selectivity factor (GR15/GR85)” value (Yellow Nutsedge; yellow nutsedge in soybeans, Replicate #2) was 7.5. For the same compound, the “GR85 Rate” value (prickly sida) was > 1.12 Kg/Ha, the “GR85 Rate” value (common ragweed) was 1.03 Kg/Ha and the “selectivity factor (GR15/GR85)” value (common ragweed; in rape) was > 1.1. The “GR85 Rate” value (common purslane) was > 1.12 Kg/Ha.
